Test [1] deals with E. coli NCTC 13353 (CTX-M15, OXA-1). The test is described as follows: Agar dilution MIC (CLSI), compound alone. Format: cell-based. The conditions noted are these: Escherichia coli. How it is done:
(§1) The biological activity of representative compounds according to the invention against various bacterial strains was investigated. In a typical study, overnight grown bacterial cultures were diluted appropriately and inoculated on the agar media containing doubling dilutions of the test compounds. Observations for growth or no growth was performed after 16-20 hours of incubation at 35±2° C. in the ambient air. The overall procedure was performed as per Clinical and Laboratory Standards Institute (CLSI) recommendations, (Clinical and Laboratory Standards Institute (CLSI), Performance Standards for Antimicrobial Susceptibility Testing, 20th Informational Supplement, M 07-A9, Volume 32, No. 2, 2012). Molten Mueller Hinton Agar (BD, USA) containing serial dilutions of each antibacterial agent were poured on to the plates and allowed to solidify. Appropriate suspensions from the freshly grown cultures were prepared in normal saline so that about 10^4 CFU/spot of the organism was delivered on to the drug containing agar plates using automated multipoint inoculator (Mast, UK). The plates were incubated in Biochemical oxygen demand (BOD) incubator at 37° C. for 18 hours and then examined for growth.

The subject of test [2] is K. pneumoniae H521 (KPC, SHV, TEM). The test is described as follows: Agar dilution MIC (CLSI), compound alone. The test is classed as cell-based. The conditions noted are these: Klebsiella pneumoniae. How it is done: as §1
Test [3] relates to K. Pneomoniae S48 (NDM, SHV, TEM). The test can be described thus: Agar dilution MIC (CLSI), compound alone. Format: cell-based, K. pneumoniae. The conditions noted are these: Klebsiella pneumoniae. How it is done: as §1
The test system of test [4] is Class C beta-lactamase CMY/DHA (E. coli M50). The test is described as follows: Beta-lactamase enzyme inhibition (Nitrocefin, crude enzyme). The conditions noted are these: Nitrocefin 100 μM. Format: biochemical. How it is done:
(§2) Absorbance was measured at 485 nm by UV-spectrophotometer. The IC50 was calculated by plotting absorbance against concentration through Sigmoidal dose response curve using Graph Pad software.

Test [5] has as its target T1, Class D beta-lactamase OXA 23 (A baumannii NCTC 13301) (Acinetobacter baumannii, UniProt Q9L4P2).
T1 construct: preincubated mixture of crude enzyme and the compounds; endogenous in cells; host or cells: A. baumannii NCTC 13301 (crude enzyme preparation)
The description is as above. Format: biochemical. The conditions noted are these: A baumannii NCTC 13301 (OXA 23), Nitrocefin 100 μM. How it is done:
as §2

For test [6], the target named is Class A beta-lactamase SHV 18 (K. pneumoniae ATCC 700603) (Klebsiella pneumoniae, UniProt P0AD64). Described as above. Format: biochemical. The conditions noted are these: read-out: Beta-lactamase enzyme inhibition IC50, K. pneumoniae ATCC 700603 (SHV 18), Nitrocefin 100 μM. How it is done: as §2
Class A beta-lactamase SHV 18 (K. pneumoniae ATCC 700603), sequence (P0AD64 22-286 limits assumed): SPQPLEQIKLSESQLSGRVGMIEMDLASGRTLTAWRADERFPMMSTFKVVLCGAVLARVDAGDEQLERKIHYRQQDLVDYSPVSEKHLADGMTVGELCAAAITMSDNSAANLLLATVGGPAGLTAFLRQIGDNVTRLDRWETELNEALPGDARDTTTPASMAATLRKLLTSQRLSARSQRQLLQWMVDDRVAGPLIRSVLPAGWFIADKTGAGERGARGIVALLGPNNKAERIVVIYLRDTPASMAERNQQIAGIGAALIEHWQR
The subject of the next test is K. pneumoniae B 77. The test can be described thus: Agar dilution MIC (CLSI), compound alone. The test is classed as cell-based. The conditions noted are these: Klebsiella pneumoniae, B77; K. pneumoniae B 77; Table 3; read-out: MIC. How it is done:
as §1

The mark [7] stands for this setting: NCTC13353, E. coli NCTC 13353 (CTX-M15, OXA-1), compound alone, Table 2, read-out: MIC.
The mark [8] stands for this setting: K. pneumoniae H521 (KPC, SHV, TEM), compound alone, Table 2, read-out: MIC.
The mark [9] stands for this setting: K. Pneomoniae S48 (NDM, SHV, TEM), compound alone, Table 2, read-out: MIC.

≈ marks a conversion by molar mass, not a printed value. Like-named read-outs stand apart in the source and are kept apart here.

T1 sequence (Q9L4P2 18-273): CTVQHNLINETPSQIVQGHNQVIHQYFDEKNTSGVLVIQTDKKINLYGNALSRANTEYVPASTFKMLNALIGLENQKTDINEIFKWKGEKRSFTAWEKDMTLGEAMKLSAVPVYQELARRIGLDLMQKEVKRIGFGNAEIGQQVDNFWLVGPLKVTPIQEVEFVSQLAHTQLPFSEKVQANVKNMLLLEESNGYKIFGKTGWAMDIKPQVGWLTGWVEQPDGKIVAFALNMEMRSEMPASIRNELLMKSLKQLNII

For the molecule `Nc1ccc(Cc2nnc([C@@H]3CC[C@@H]4CN3C(=O)N4OS(=O)(=O)O)o2)cc1` [Example 11, (2S,5R)-sulfuric acid mono-{2-[5-(4-amino-benzyl)-[1,3,4]-oxadiazol-2-yl]-7-oxo-1,6-diaza-bicyclo[3.2.1]oct-6-yl} ester], the MIC in test [1] (NCTC13353) is greater than 32 µg/mL; in test [2], greater than 32 µg/mL; in test [3], 32 µg/mL (≈ 80.9 µM). The figures for the half-inhibitory concentration (IC50) in test [4] and in test [5] were 0.013 µM and 0.108 µM, respectively.
As for `COc1ccc(Cc2nnc([C@@H]3CC[C@@H]4CN3C(=O)N4OS(=O)(=O)O)o2)cc1` [Example 14, (2S,5R)-sulfuric acid mono-{2-[5-(4-methoxy-benzyl)-[1,3,4]-oxadiazol-2-yl]-7-oxo-1,6-diaza-bicyclo[3.2.1]oct-6-yl} ester], the minimum inhibitory concentration (MIC) in test [1] (setting [7]), in test [2] (setting [8]) and in test [3] (setting [9]) was greater than 32 µg/mL throughout. Besides, the IC50 in test [4] is 0.013 µM; in test [5] it was 0.08 µM.
Consider `O=C1N2C[C@@H](CC[C@H]2c2nnc(CC(c3ccccc3)c3ccccc3)o2)N1OS(=O)(=O)O` [Example 9, (2S,5R)-sulfuric acid mono-{2-[5-(2,2-diphenyl-ethyl)-[1,3,4]-oxadiazol-2-yl]-7-oxo-1,6-diaza-bicyclo[3.2.1]oct-6-yl} ester], for which the MIC in test [1] (setting [7]), in test [2] (setting [8]) and in test [3] (setting [9]) was greater than 32 µg/mL throughout. Also, the half-inhibitory concentration (IC50) in test [6] is 0.004 µM; in test [5], 0.24 µM.
`O=C1N2C[C@@H](CC[C@H]2c2nnc(Cc3ccc(Cl)cc3)o2)N1OS(=O)(=O)O` [Example 10, (2S,5R)-sulfuric acid mono-{2-[5-(4-chloro-benzyl)-[1,3,4]-oxadiazol-2-yl]-7-oxo-1,6-diaza-bicyclo[3.2.1]oct-6-yl} ester]: the minimal inhibitory concentration (MIC) in test [1] (NCTC13353), in test [2] and in test [3] was greater than 32 µg/mL throughout. The values for the IC50 in test [4] and in test [5] were 0.01 µM and 0.108 µM, respectively.
On to `O=C1N2C[C@@H](CC[C@H]2c2nnc(CC3CNC3)o2)N1OS(=O)(=O)O` [Example 1, (2S,5R)-Sulfuric acid mono-[2-(5-azetidin-3-ylmethyl-1,3,4-oxadiazol-2-yl)-7-oxo-1,6-diaza-bicyclo[3.2.1]oct-6-yl]ester], for which the MIC in test [1] (setting [7]), in test [2] (setting [8]) and in test [3] (setting [9]) was greater than 32 µg/mL in each case. In addition, the results for the IC50 in test [6], in test [4] and in test [5] were 0.027 µM, 0.402 µM and 3.95 µM, respectively.
As for `O=C(O)[C@H]1/C(=C/CO)O[C@@H]2CC(=O)N21` [Clavulanic acid, clavulanic acid, reference compound], the concentration for half-maximal inhibition (IC50) in test [4] is greater than 10 µM.
For the molecule `NC(=O)[C@@H]1CC[C@@H]2CN1C(=O)N2OS(=O)(=O)O` [Avibactam, avibactam, reference compound], the minimum inhibitory concentration (MIC) in the test with K. pneumoniae B 77 turned out to be 32 µg/mL (≈ 121 µM). For the same molecule, the half-inhibitory concentration (IC50) in test [6] is 0.098 µM; in test [4], 0.146 µM.
With `O=C1N2C[C@@H](CC[C@H]2c2nnc(C(c3ccccc3)c3ccccc3)o2)N1OS(=O)(=O)O` [Example 8, (2S,5R)-sulfuric acid mono-[2-(5-benzhydryl-[1,3,4]-oxadiazol-2-yl)-7-oxo-1,6-diaza-bicyclo[3.2.1]oct-6-yl] ester], the MIC in test [1] (setting [7]), in test [2] (setting [8]) and in test [3] (setting [9]) was greater than 32 µg/mL each time. In addition, the IC50 in test [6] came to 0.037 µM; in test [4] it was 0.017 µM; in test [5], 0.008 µM.
Consider `O=C1N2C[C@@H](CC[C@H]2c2nnc(C[C@@H]3CCCN3)o2)N1OS(=O)(=O)O` [Example 2, (2S,5R)-sulfuric acid mono-[2-(5-(S)-pyrrolidin-2-ylmethyl-[1,3,4]-oxadiazol-2-yl)-7-oxo-1,6-diaza-bicyclo[3.2.1]oct-6-yl] ester], for which the minimum inhibitory concentration (MIC) in test [1] (setting [7]) was greater than 32 µg/mL; in test [2] (setting [8]) it was greater than 32 µg/mL; in test [3] (setting [9]) it was 32 µg/mL (≈ 85.7 µM). Moreover, the IC50 turned out to be 0.027 µM in test [6] and 12.9 µM in test [5].
With `O=C1N2C[C@@H](CC[C@H]2c2nnc(Cc3ccc(O)cc3)o2)N1OS(=O)(=O)O` [Example 13, (2S,5R)-sulfuric acid mono-{2-[5-(4-hydroxy-benzyl)-[1,3,4]-oxadiazol-2-yl]-7-oxo-1,6-diaza-bicyclo[3.2.1]oct-6-yl} ester], the MIC in test [1] (NCTC13353), in test [2] and in test [3] was greater than 32 µg/mL in each case. Further, the IC50 in test [6] came out at 0.013 µM; in test [4], 0.0001 µM; in test [5], 0.039 µM.
Consider `O=C1N2C[C@@H](CC[C@H]2c2nnc(CCCc3ccccc3)o2)N1OS(=O)(=O)O` [Example 7, (2S,5R)-sulfuric acid mono-{2-[5-(3-phenyl-propyl)-[1,3,4]-oxadiazol-2-yl]-7-oxo-1,6-diaza-bicyclo[3.2.1]oct-6-yl} ester], for which the MIC in test [1] (setting [7]) is greater than 32 µg/mL; in test [2] (setting [8]), greater than 32 µg/mL; in test [3] (setting [9]), 32 µg/mL (≈ 78.3 µM). Besides, the figures for the IC50 in test [6], in test [4] and in test [5] were 0.04 µM, 0.004 µM and 0.115 µM, respectively.
Regarding `CN(C)c1ccc(Cc2nnc([C@@H]3CC[C@@H]4CN3C(=O)N4OS(=O)(=O)O)o2)cc1` [Example 12, (2S,5R)-sulfuric acid mono-{2-[5-(4-dimethylamino-benzyl)-[1,3,4]-oxadiazol-2-yl]-7-oxo-1,6-diaza-bicyclo[3.2.1]oct-6-yl} ester], the MIC in test [1] (setting [7]), in test [2] (setting [8]) and in test [3] (setting [9]) was greater than 32 µg/mL in each case. In addition, the 50% inhibitory concentration (IC50) was 0.01 µM in test [6], 0.006 µM in test [4] and 0.097 µM in test [5].
`O=C1N2C[C@@H](CC[C@H]2c2nnc(CC3CNCCN3)o2)N1OS(=O)(=O)O` (stereo partly drawn) [Example 4, (2S,5R)-sulfuric acid mono[2-(5-(RS)-piperazin-2-ylmethyl-[1,3,4]-oxadiazol-2-yl)-7-oxo-1,6-diaza-bicyclo[3.2.1]oct-6-yl] ester]: the MIC is greater than 32 µg/mL in test [1] (NCTC13353, 18 h, E. coli NCTC 13353 (CTX-M15, OXA-1), compound alone, Table 2, read-out: MIC); greater than 32 µg/mL in test [2] (18 h, K. pneumoniae H521 (KPC, SHV, TEM), compound alone, Table 2, read-out: MIC); greater than 32 µg/mL in test [3] (18 h, K. Pneomoniae S48 (NDM, SHV, TEM), compound alone, Table 2, read-out: MIC). Moreover, the half-inhibitory concentration (IC50) in test [6] came out at 0.027 µM; in test [5] it was 0.41 µM.
With `O=C1N2C[C@@H](CC[C@H]2c2nnc(CC3CCNCC3)o2)N1OS(=O)(=O)O` [Example 3, (2S,5R)-sulfuric acid mono-[2-(5-piperidin-4-ylmethyl-[1,3,4]-oxadiazol-2-yl)-7-oxo-1,6-diaza-bicyclo[3.2.1]oct-6-yl] ester], the MIC in test [1] (NCTC13353), in test [2] and in test [3] was greater than 32 µg/mL each time. Also, the IC50 in test [6] was 0.039 µM; in test [4], 0.02 µM; in test [5], 5.72 µM.

Values taken from patent US9845323B2, “2-(1,3,4-oxadiazol-2-yl)-7-oxo-1,6-diazabicyclo[3.2.1 ]octane derivatives and their use as antibacterial agents” (WOCKHARDT LIMITED, priority 2014, dated 2017).
